Results on 9 molecules are retold here after PMC3983011 (2014).

Common to all, as to conditions: 150 mM NaCl, 5 mM MgCl2; 10 mM HEPES, pH 7.4, 25 °C; immobilised aptamer
The test system of test [1] is minimal MG-4 malachite green aptamer (RNA, aptamer) GGGAUCCCGACUGGCGAGAGCCAGGUAACGAAUGGAUCCCCCCAAAAAAAAAAAAAAAAAAAAAAAA
The test is described as follows: SPR, steady-state affinity fit. In general terms: SPR reads the build-up and loss of mass on a sensor chip optically.

For test [2] the test system is unchanged. The test is described as follows: SPR kinetics, kd/ka, 1:1 fit.
Test [3] deals with 35FMN-2 flavin mononucleotide aptamer (RNA, aptamer) GGGCGUGUAGGAUAUCGUGUUCGAGAAGGACACGCCCCCCAAAAAAAAAAAAAAAAAAAAAAAA
The test is described as follows: SPR, steady-state affinity fit.

Test [4] shares this test system. The test is described as follows: SPR kinetics, kd/ka, 1:1 fit.
The subject of test [5] is minimal thiM TPP riboswitch (RNA, riboswitch) GGGACUCGGGGUGCCCUUCUGCGUGAAGGCUGAGAAAUACCCGUAUCACCUGAUCUGGAUAAUGCCAGCGUAGGGAAGUCCCCCAAAAAAAAAAAAAAAAAAAAAAAA
Description: SPR kinetics, kd/ka, 1:1 fit.

Test [6] concerns TCT8-4 theophylline aptamer (RNA, aptamer) GGGAAGUGAUACCAGCAUCGUCUUGAUGCCCUUGGCAGCACUUCCCCCAAAAAAAAAAAAAAAAAAAAAAAA
The test is described as follows: SPR, steady-state affinity fit.

Test [7] shares this test system. Description: SPR kinetics, kd/ka, 1:1 fit.
In test [8] the test system is 44.Arg11 arginine aptamer (RNA, aptamer) GGGACGAGAAGGAGCGCUGGUUAUACUAGCAGGUAGGUCACUCGUCCCCCAAAAAAAAAAAAAAAAAAAAAAAA
The test is described as follows: SPR, steady-state affinity fit.

The subject of test [9] is 44.Cit11 citrulline aptamer (RNA, aptamer) GGGACGAGAAGGAGUGCUGGUUAUACUAGCGGUUAGGUCACUCGUCCCCCAAAAAAAAAAAAAAAAAAAAAAAA
Description: SPR, steady-state affinity fit.

Test [10] has as its system minimal Tyr 1 tyrosine aptamer (RNA, aptamer) GGGGGCAGUCAACUCGUAAGAUGGCCUUACAGCGGUCAAUACGGGGGUCAUCAGAUAGGGAGGCCCCCCAAAAAAAAAAAAAAAAAAAAAAAA
Description: SPR, steady-state affinity fit.

Test [11] concerns c-di-GMP class II riboswitch (RNA, riboswitch) GGGUAUUUAUAGAAACUGUGAAGUAUAUCUUAAACCUGGGCACUUAAAAGAUAUAUGGAGUUAGUAGUGCAACCUGCUAUAAAUACCCCAAAAAAAAAAAAAAAAAAAAAAAA
Description: SPR, steady-state affinity fit.

Test [12] shares this test system. Description: SPR kinetics, kd/ka, 1:1 fit.
Test [13] concerns DH25.42 ATP aptamer (DNA, aptamer) CCTGGGGGAGTATTGCGGAGGAAGGAAAAAAAAAAAAAAAAAAAAAAAA
Description: SPR, steady-state affinity fit.

For the molecule `CN(C)c1ccc(C(=C2C=CC(=[N+](C)C)C=C2)c2ccccc2)cc1`, the “KD,equilibrium” value in test [1] turned out to be 2000 ± 100 nM. The “KD,kinetic” value in test [2] turned out to be 950 ± 340 nM.
For `Cc1cc2nc3c(=O)[nH]c(=O)nc-3n(C[C@H](O)[C@H](O)[C@H](O)COP(=O)(O)O)c2cc1C`, in [3], the “KD,equilibrium” value is recorded as 710 ± 20 nM. For the same molecule, in test [4], the “KD,kinetic” value turned out to be 1100 ± 400 nM.
For the molecule `Cc1ncc(C[n+]2csc(CCOP(=O)(O)OP(=O)(O)O)c2C)c(N)n1`, in [5], the “KD,kinetic” value turned out to be 0.89 ± 0.8 nM.
For the molecule `Cn1c(=O)c2[nH]cnc2n(C)c1=O`, the “KD,equilibrium” value in test [6] was 340 ± 20 nM. Further, the “KD,kinetic” value in test [7] is given as 430 ± 40 nM.
For the molecule `N=C(N)NCCC[C@H](N)C(=O)O`, the “KD,equilibrium” value in test [8] was determined as 140000 ± 40000 nM.
Regarding `NC(=O)NCCC[C@H](N)C(=O)O`, in test [9], the “KD,equilibrium” value stood at 31000 ± 1000 nM.
Turning to `N[C@@H](Cc1ccc(O)cc1)C(=O)O`, the “KD,equilibrium” value in [10] was determined as 17000 ± 6000 nM.
On to `Nc1nc2c(ncn2[C@@H]2O[C@@H]3COP(=O)(O)O[C@H]4[C@@H](O)[C@H](n5cnc6c(=O)[nH]c(N)nc65)O[C@@H]4COP(=O)(O)O[C@H]3[C@H]2O)c(=O)[nH]1`, for which the “KD,equilibrium” value in test [11] came out at 120 ± 20 nM. Also, the “KD,kinetic” value in test [12] was 60 ± 31 nM.
On to `Nc1ncnc2c1ncn2[C@@H]1O[C@H](COP(=O)(O)OP(=O)(O)OP(=O)(O)O)[C@@H](O)[C@H]1O`, for which the “KD,equilibrium” value in test [13] came out at 8800 ± 3000 nM.
